Laboratory results published in ChEMBL document CHEMBL5214958, “Discovery of novel compounds as potent activators of Sirt3” (Bioorg Med Chem, 2022).
One block for each compound: values may come before it.

Assays:
[1] = molecular target: T1, NAD-dependent protein deacetylase sirtuin-3, mitochondrial (Homo sapiens) (UniProt Q9NTG7); assay: (§1) Modulation of human Sirt3 (118 to 399 residues) deacetylation activity under non-steady state assessed as substrate deacetylation at low enzyme concentration with [E]0/[NAD+]0 ratio of 0.1 at 10 uM incubated for 2 mins using MnSOD peptide as substrate in presence of NAD+ by HPLC-assay relative to control; conditions: filed as modulator
T1 sequence (whole entry): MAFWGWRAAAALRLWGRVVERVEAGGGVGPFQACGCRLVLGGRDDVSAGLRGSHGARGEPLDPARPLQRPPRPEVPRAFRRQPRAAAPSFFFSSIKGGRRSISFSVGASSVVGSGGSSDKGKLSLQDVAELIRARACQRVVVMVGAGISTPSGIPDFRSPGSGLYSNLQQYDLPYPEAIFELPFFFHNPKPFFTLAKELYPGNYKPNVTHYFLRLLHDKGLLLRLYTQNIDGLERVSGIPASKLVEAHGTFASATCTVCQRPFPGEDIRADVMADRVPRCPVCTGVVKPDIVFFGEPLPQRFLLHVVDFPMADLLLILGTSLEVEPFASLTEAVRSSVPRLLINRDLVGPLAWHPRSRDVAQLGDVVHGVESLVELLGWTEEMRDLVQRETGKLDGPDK

[2] = molecular target: T1, NAD-dependent protein deacetylase sirtuin-3, mitochondrial (Homo sapiens); assay: as §1, with “high” for “low”, “0.6” for “0.1”; conditions: filed as modulator
[3] = molecular target: T1, NAD-dependent protein deacetylase sirtuin-3, mitochondrial (Homo sapiens); assay: as §1, with “0.3” for “0.1”; conditions: filed as modulator
[4] = molecular target: T2, NAD-dependent protein deacetylase sirtuin-3, mitochondrial (Homo sapiens, UniProt Q9NTG7); assay: Binding affinity to human Sirt3 (118 to 399 residues) assessed as dissociation constant using acetylated MnSOD peptide as substrate in presence of honokiol by microscale thermophoresis analysis
T2 sequence (Q9NTG7 whole entry): T1 sequence (whole entry)

[5] = molecular target: T2, NAD-dependent protein deacetylase sirtuin-3, mitochondrial; assay: Binding affinity to human Sirt3 (118 to 399 residues) assessed as dissociation constant using acetylated MnSOD peptide as substrate by microscale thermophoresis analysis
[6] = molecular target: T2, NAD-dependent protein deacetylase sirtuin-3, mitochondrial; assay: Modulation of human Sirt3 (118 to 399 residues) deacetylation activity under non-steady state assessed as substrate deacetylation at low enzyme concentration with [E]0/[NAD+]0 ratio of 0.1 incubated for 5 mins using MnSOD peptide as substrate in presence of NAD+ by HPLC-assay relative to control
[7] = molecular target: T2, NAD-dependent protein deacetylase sirtuin-3, mitochondrial; assay: Binding affinity to human Sirt3 (118 to 399 residues) assessed as dissociation constant (Koff) of ternary complex using acetylated MnSOD peptide as substrate in presence of OAADPr by short DNA nano levers based switchSENSE microfluid bio-chip analysis
[8] = molecular target: T2, NAD-dependent protein deacetylase sirtuin-3, mitochondrial; assay: Binding affinity to human Sirt3 (118 to 399 residues) assessed as dissociation constant of ternary complex using acetylated MnSOD peptide as substrate in presence of OAADPr by short DNA nano levers based switchSENSE microfluid bio-chip analysis
[9] = molecular target: T2, NAD-dependent protein deacetylase sirtuin-3, mitochondrial; assay: Binding affinity to human Sirt3 (118 to 399 residues) assessed as dissociation constant (Koff) by short DNA nano levers based switchSENSE microfluid bio-chip analysis
[10] = molecular target: T2, NAD-dependent protein deacetylase sirtuin-3, mitochondrial; assay: Binding affinity to human Sirt3 (118 to 399 residues) assessed as dissociation constant of ternary complex using acetylated MnSOD peptide as substrate in presence of OAADPr by microscale thermophoresis analysis
[11] = molecular target: T2, NAD-dependent protein deacetylase sirtuin-3, mitochondrial; assay: Binding affinity to human Sirt3 (118 to 399 residues) assessed as dissociation constant using 625nM acetylated MnSOD peptide as substrate by microscale thermophoresis analysis

Activity [1]: 114% | Activity [2]: 127%
SMILES: Cc1ccc(-c2nc3n(n2)C(=O)CC(c2cccc4ccccc24)S3)cc1 (stereo not given)

Activity [3]: 100%
SMILES: CCCCNC(=O)[C@@H](Cc1ccc(Cl)cc1)NC(=O)CSC(=S)c1ccccc1

Kd [4]: 6.6 µM | Kd [5]: 7.3 µM
SMILES: NC(=O)c1ccc[n+]([C@@H]2C[C@H](COP(=O)(O)OP(=O)(O)OC[C@H]3O[C@@H](n4cnc5c(N)ncnc54)[C@H](O)[C@@H]3O)[C@@H](O)[C@H]2O)c1

Activity [3]: 104% | Activity [2]: 107%
SMILES: C=C(CC)C(=O)c1ccc(OCC(=O)N[C@H](Cc2ccc(Cl)cc2)C(=O)NCCCC)c(Cl)c1Cl

EC50 [6]: < 5 µM | Kd [7]: 0.162 s⁻¹ | Kd [8]: 12.6 µM | Kd [9]: 0.22 s⁻¹
SMILES: CCCCNC(=O)COc1ccc2c(c1)CCc1ccccc1C2NC(=O)CCCOc1cc([N+](=O)[O-])c(C(C)O)cc1OC (stereo not given)

Activity [3]: 108% | Kd [10]: 0.29 µM | Kd [5]: 0.97 µM | Kd [11]: 2.99 µM
SMILES: C=CCc1ccc(O)c(-c2ccc(O)c(CC=C)c2)c1 [HONOKIOL]
